Measurements from patent US10344330B2, “Glatiramer acetate response biomarker mRNA potency assay” (Mylan Inc., priority 2013, dated 2019).

Experiments:
[1] = tested on: IL-12 (total) secreted by LN cells; assay: IL-12 (total) secretion by GA-stimulated LN cells, MSD 9-plex ELISA (Example II); type: cell-based, mouse; conditions: for IL-12 (total) secretion response ratio (treated cell medium to control DCCM1 medium): 21 hr
Method: Animals at 8 weeks of age were immunized by injection into four footpads using a 1 mL syringe with a 27-G, 1⁄2-inch needle. […] Ten days post-immunization, immunized animals were sacrificed via cervical dislocation. […] The LN cells were isolated by pressing the LN with the plunger end of a sterile syringe. […] Trypan blue exclusion method was used to determine the cell density of viable cells in the suspension. […] Cat. […] LN cells were plated into a 24-well tissue culture plate for drug stimulation. […] Cell debris was removed by centrifugation at ca. 200×g for 10 minutes at 4° C. Cytokines secreted by treated cells were determined on the day of collection by ELISA using mouse TH 1/TH 2 9-Plex Tissue Culture Kit (Meso Scale Discovery; Cat No. […]-2, Lot #: K0032839) which detects Th1 cytokines (IFN-γ, IL-2, IL-12, IL-1β, TNF-α, CXCL1) and Th2 cytokines (IL-4, IL-5 and IL-10). For IFN-γ, culture media also were assayed at 45 hours using mouse IFN-γ Tissue Culture Kit (Meso Scale Discovery; Cat No. […] For the positive control, 0.5 mL of LN cells (5×10^6 cells/well) were treated with 0.5 mL of ConA (5 μg/mL). For the negative control, 0.5 mL of LN cells (5×10^6 cells/well) were treated with 0.5 mL of MBP (20 μg/mL). The LN cells with mock stimulation (enriched DCCM1 medium) were used to monitor the background level of a cytokine. For the cytokine assays, calibration standards or samples were incubated in the MULTI-SPOT or the SINGLE-SPOT plate and each cytokine bound to its corresponding capture antibody. All test samples were run in duplicate. The amount of each cytokine on its distinct spot was quantified using a cytokine-specific detection antibody labeled with MSD SULFO-TAGTM reagent. Electrochemiluminescent signals from immobilized SULFO-TAGTM-labeled complexes on each spot from each well were captured by the MSD SECTOR Imager 6000, which produces a signal directly proportional to the amount of captured cytokine in a test sample. The levels of cytokines in test samples were derived by interpolation from calibration curves with calibration standards of known concentrations using reagents provided with the MSD kits. Kits were used according to the manufacturer's protocols. […] Data are expressed as a response ratio of cytokine concentration in treated cell medium to control DCCM1 medium.

[2] = tested on: mouse IFN-γ mRNA in primary LN cells; assay: Validation: mouse IFN-γ mRNA by real-time PCR in LN cells of GA-immunized SJL/J mice (Example IV); type: cell-based; conditions: for IFN-γ mRNA Fold Change: normalized to GAPDH
Method: Three experiments were conducted using one batch of GA (Mylan GMA). The primary LN cells were stimulated by incubation with 6 concentrations (0.3 to 20 μg/mL) of the GA for 6 hours at 37° C. Total RNA was isolated from LN cells stimulated with GA or controls. cDNA was synthesized from the RNA and the mRNA levels of seven mouse cytokines, IL-2, IL-4, IL-5, IL-10, IL-13, interferon (IFN)-γ and tumor necrosis factor (TNF)-α, were quantitatively measured by a real-time PCR method.
Female SJL/J mice at 8-9 weeks of age were immunized by injection into four footpads using a 1 mL syringe with a 27-G, ½-inch needle. Each mouse received a total injection volume of 0.1 mL of GMA emulsified in CFA (about 10 μL into each of the front footpads and 40 μL into each of the hind footpads). Animals were immunized on Day 0. After injection, animals were placed back in their cages and housed ≤6 animals per cage.
Immunized animals were sacrificed by cervical dislocation on Day 10 following immunization. […] After centrifugation at about 200×g for 10 minutes at 4° C., the cell pellet was re-suspended in 40 mL of DCCM-1 medium for cell counting. A Trypan blue exclusion method was used to determine the cell density of viable cells in the suspension. After cell counting, the LN cells were suspended in enriched DCCM-1 medium at density of 7.5×10^6 cells/mL. LN cells (0.12 mL) were plated into each well of 96-well tissue culture plates.
Dilutions of GA (Mylan GMA) were prepared using enriched DCCM-1 medium as the diluent. GA dilutions (0.12 mL) were added in the assigned wells of 96-well tissue culture plates. The same volume of LN cells (0.12 mL) isolated from immunized animals was added to the assigned wells. A positive control and a negative control were always performed in the same assay by treating LN cells with 2.5 μg/mL ConA and 10 μg/mL MBP, respectively. The LN cells with mock stimulation protocols (enriched DCCM-1 medium) were used to monitor the background mRNA level of a cytokine. The plates were incubated at 37° C. in a humidified 5% CO2 incubator for 6 hr.
At the end of incubation time, culture medium from stimulated cells was removed by aspiration and the cells were lysed using Qiagen or Promega lysis buffer. The lysate was transferred to an RNeasy Mini column (Qiagen) or wells of the SV 96 Binding Plate (Promega) for RNA isolation and cDNA synthesis. All tested samples were run in triplicate.
The SV 96 Total RNA Isolation System (Promega; Cat. No. Z3505) was used for total RNA isolation. Assay procedures were carried out according to each manufacturer's protocol. RNA samples were stored at −70° C. until use. […] The assay procedure was carried out according to the manufacturer's protocol.
The plate was centrifuged at 2000 rpm for 2 minutes at 4° C. to spin down the contents and eliminate air bubbles. Samples were prepared and run in a 96-well plate using a Life Technologies Real-Time PCR system (previously Applied Biosystems; Model No. 7500) according to the manufacturer's recommendation. The mix for the reference gene was prepared in the same way using the reference gene primer.
A relative quantitation method was used to analyze changes in mIL-2, mIL-4, mIL-5, mIL-10, mIL-13, mIFN-γ and TNF-α expression in GA treated samples relative to the untreated control (Enriched DCCM-1 treated) samples using the following program:
Levels of mouse cytokine amplicons were normalized to an internal probe level (GAPDH) from the same samples. The following equations were used to calculate the relative increase in response to GA stimulation compared to the control sample (Enriched DCCM1 sample): […]

[3] = BALB/cByJ, immunized GA Intraplantar
[4] = BALB/cByJ, immunized GA Lower Limb
[5] = BALB/cByJ, immunized Mannitol Intraplantar
[6] = C57BL10J, immunized GA Intraplantar
[7] = C57BL10J, immunized GA Lower Limb
[8] = C57BL10J, immunized Mannitol Intraplantar
[9] = CD-1, immunized GA Intraplantar
[10] = CD-1, immunized Mannitol Intraplantar

Molecule | IL-12 (total) secretion response ratio (treated cell medium to control DCCM1 medium) [1, 3] | IL-12 (total) secretion response ratio (treated cell medium to control DCCM1 medium) [1, 4] | IL-12 (total) secretion response ratio (treated cell medium to control DCCM1 medium) [1, 5] | IL-12 (total) secretion response ratio (treated cell medium to control DCCM1 medium) [1, 6] | IL-12 (total) secretion response ratio (treated cell medium to control DCCM1 medium) [1, 7] | IL-12 (total) secretion response ratio (treated cell medium to control DCCM1 medium) [1, 8] | IL-12 (total) secretion response ratio (treated cell medium to control DCCM1 medium) [1, 9] | IL-12 (total) secretion response ratio (treated cell medium to control DCCM1 medium) ([1]; CD-1, immunized GA Lower Limb) | IL-12 (total) secretion response ratio (treated cell medium to control DCCM1 medium) [1, 10] | IFN-γ mRNA Fold Change ([2]; Experiment 1, 2.5 μg/mL) [fold] | IFN-γ mRNA Fold Change ([2]; Experiment 2, 2.5 μg/mL) [fold] | IFN-γ mRNA Fold Change ([2]; Experiment 3, 2.5 μg/mL) [fold] | IL-12 secretion, dose response to GA (in words) ([1]; cells from any of the three mouse strains) | induction of IFN-γ mRNA (in words) ([2]; SJL/J, different concentrations of GA vs unstimulated LN cells) | induction of IFN-γ mRNA ([2]; SJL/J, stimulation with 2.5 to 10 μg/mL GA, three experiments) [fold] | IFN-γ mRNA Fold Change ([2]; Experiment 1, 10 μg/mL) [fold] | IFN-γ mRNA Fold Change ([2]; Experiment 2, 10 μg/mL) [fold] | IFN-γ mRNA Fold Change ([2]; Experiment 3, 10 μg/mL) [fold] | IFN-γ mRNA expression level in response to MBP treatment ([2]; SJL/J, MBP 10 μg/mL, all PCR runs) [fold]
Concanavalin A [ConA, reference compound] | 1.66 | 1.10 | 1.44 | 1.88 | 1.01 | 0.92 | 1.09 | 1.91 | 1.80 | 1.9 | 1.6 | 2.6 |  |  |  |  |  |  | 
L-glutamic acid polymer with L-alanine, L-lysine and L-tyrosine, acetate (salt) [GA] |  |  |  |  |  |  |  |  |  |  |  |  | No dose response | weak induction | ≥ 2 |  |  |  | 
MBP: myelin basic protein, a negative control (protein, UniProt P02686 1-304, looked up) Myelin basic protein: MGNHAGKRELNAEKASTNSETNRGESEKKRNLGELSRTTSEDNEVFGEADANQNNGTSSQDTAVTDSKRTADPKNAWQDAHPADPGSRPHLIRLFSRDAPGREDNTFKDRPSESDELQTIQEDSAATSESLDVMASQKRPSQRHGSKYLATASTMDHARHGFLPRHRDTGILDSIGRFFGGDRGAPKRGSGKDSHHPARTAHYGSLPQKSHGRTQDENPVVHFFKNIVTPRTPPPSQGKGRGLSLSRFSWGAEGQRPGFGYGGRASDYKSAHKGFKGVDAQGTLSKIFKLGGRDSRSGSPMARR | 1.09 | 1.04 | 1.05 | 1.18 | 1.19 | 1.13 | 1.22 | 1.18 | 0.99 |  |  |  |  |  |  | 0.8 | 1.3 | 1.1 | ≤ 2
